Source: patent publication US10758534B2 (Vertex Pharmaceuticals Incorporated, priority 2014, dated 2020)
Where two headings read alike, the source gives them in different places.

Biological target: T1, F508del (Homo sapiens, UniProt P13569, DEL508-508)
T1 construct: expressed in transfected cells
Assay: Protocol 2: FRET membrane potential optical assay (VIPR), identification of correction compounds
Format: cell-based
Summary of the method: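 NIH3T3 mouse fibroblasts stably expressing F508del-CFTR incubated with compound 16 h at 37 °C in serum-free medium, then loaded with CC2-DMPE/DiSBAC2(3) FRET dyes. Channel activated with 10 μM forskolin plus 20 μM genistein in Cl⁻-free (gluconate) bath; depolarisation from Cl⁻ efflux read on VIPR II.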

[1] = F508del CFTR modulator activity, compounds of Table 1, read-out: EC30
[2] = F508del CFTR modulator activity, compounds of Table 1

T1 sequence (P13569 with tags, fused parts or gaps DEL508-508): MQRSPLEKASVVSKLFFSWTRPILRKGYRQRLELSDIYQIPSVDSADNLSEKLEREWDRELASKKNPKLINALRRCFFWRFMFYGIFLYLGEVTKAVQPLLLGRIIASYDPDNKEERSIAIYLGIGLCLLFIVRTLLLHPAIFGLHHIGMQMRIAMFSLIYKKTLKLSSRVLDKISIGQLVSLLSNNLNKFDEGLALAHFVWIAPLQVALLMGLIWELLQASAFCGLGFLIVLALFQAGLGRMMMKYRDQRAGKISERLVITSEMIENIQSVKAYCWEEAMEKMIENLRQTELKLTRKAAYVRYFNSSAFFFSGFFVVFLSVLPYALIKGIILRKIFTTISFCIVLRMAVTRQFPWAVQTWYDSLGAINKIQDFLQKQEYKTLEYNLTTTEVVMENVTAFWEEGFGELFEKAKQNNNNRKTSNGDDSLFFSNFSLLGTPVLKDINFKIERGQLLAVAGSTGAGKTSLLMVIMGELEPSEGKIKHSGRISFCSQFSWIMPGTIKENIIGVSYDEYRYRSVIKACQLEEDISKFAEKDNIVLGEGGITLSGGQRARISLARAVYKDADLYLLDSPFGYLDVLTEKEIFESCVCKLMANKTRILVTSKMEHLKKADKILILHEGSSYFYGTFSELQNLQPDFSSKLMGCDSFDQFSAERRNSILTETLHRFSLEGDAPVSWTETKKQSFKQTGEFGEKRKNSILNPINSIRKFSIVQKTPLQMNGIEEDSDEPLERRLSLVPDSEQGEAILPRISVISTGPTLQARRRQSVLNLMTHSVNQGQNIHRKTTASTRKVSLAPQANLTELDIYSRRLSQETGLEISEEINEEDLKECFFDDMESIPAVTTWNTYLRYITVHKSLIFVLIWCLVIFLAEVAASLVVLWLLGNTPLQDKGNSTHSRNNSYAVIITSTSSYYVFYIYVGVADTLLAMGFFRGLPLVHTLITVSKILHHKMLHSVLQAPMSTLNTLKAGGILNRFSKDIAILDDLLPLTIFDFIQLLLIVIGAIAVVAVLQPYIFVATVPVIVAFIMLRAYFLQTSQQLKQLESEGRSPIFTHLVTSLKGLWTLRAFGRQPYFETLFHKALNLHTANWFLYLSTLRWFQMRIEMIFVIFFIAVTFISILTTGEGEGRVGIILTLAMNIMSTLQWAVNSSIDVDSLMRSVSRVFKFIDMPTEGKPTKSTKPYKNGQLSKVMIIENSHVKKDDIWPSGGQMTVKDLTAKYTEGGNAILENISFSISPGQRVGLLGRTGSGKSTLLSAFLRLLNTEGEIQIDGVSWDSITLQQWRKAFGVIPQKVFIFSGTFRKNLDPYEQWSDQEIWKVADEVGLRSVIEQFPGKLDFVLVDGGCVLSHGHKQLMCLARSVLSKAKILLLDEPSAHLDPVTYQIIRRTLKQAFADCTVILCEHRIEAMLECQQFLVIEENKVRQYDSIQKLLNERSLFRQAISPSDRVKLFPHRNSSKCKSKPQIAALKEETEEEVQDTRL

| EC30 [1] [nM] | Compound | further results |
| --- | --- | --- |
| < 3000 | CCOCCOCCN(C)c1ncc(-c2ccc(C(=O)NS(=O)(=O)c3cccc(N)n3)c(N3C[C@@H](C)CC3(C)C)n2)cc1C [Compound 2681] | – |
| < 3000 | Cc1cc(-c2ccc(C(=O)NS(=O)(=O)c3cccc(N)n3)c(N3C[C@@H](C)CC3(C)C)n2)cnc1N(C)C(C)C [Compound 2684] | – |
| 3000 to 10000 | C[C@@H]1CN(c2nc(-c3ccc(O[C@@H](C)CO)nc3)ccc2C(=O)NS(=O)(=O)c2cccnc2N)C(C)(C)C1 [Compound 2687] | – |
| < 3000 | COc1ccc(S(=O)(=O)NC(=O)c2ccc(-c3ccc(OC(C)C)nc3)nc2N2C[C@@H](C)CC2(C)C)c(N)n1 [Compound 2688] | – |
| < 3000 | C[C@@H]1CN(c2nc(-n3ccc(OCC4CC4)n3)ccc2C(=O)NS(=O)(=O)c2cccnc2N)C(C)(C)C1 [Compound 2691] | – |
| 3000 to 10000 | C[C@@H]1CN(c2ncccc2C(=O)NS(=O)(=O)N2CCCC(NCc3ccc(OC(C)(C)C)cc3)C2)C(C)(C)C1 (stereo partly shown) [Compound 2692] | – |
| < 3000 | Cc1cn(-c2ccc(C(=O)NS(=O)(=O)c3cccnc3N)c(N3C[C@@H](C)CC3(C)C)n2)nc1OCC(C)(C)C [Compound 2694] | – |
| < 3000 | C[C@@H]1CN(c2nc(-n3ccc(-c4ccccc4)n3)ccc2C(=O)NS(=O)(=O)c2cccnc2N)C(C)(C)C1 [Compound 2696] | – |
| < 3000 | CCOCCOCCOc1ccc(C(=O)NS(=O)(=O)c2cccnc2N)c(N2C[C@@H](C)CC2(C)C)n1 [Compound 2700] | – |
| < 3000 | Cc1cc(C)cc(-c2ccc(C(=O)NS(=O)(=O)c3cccc(OCCC(C)C)n3)c(N3C[C@@H](C)CC3(C)C)n2)c1 [Compound 2701] | – |
| 3000 to 10000 | C[C@@H]1CN(c2ncccc2C(=O)NS(=O)(=O)N2CC[C@@H](NCCCc3ccc(Cl)cc3)C2)C(C)(C)C1 [Compound 2710] | – |
| < 3000 | COc1ccc(CNc2cccc(S(=O)(=O)NC(=O)c3ccc(C(C)(C)C)nc3N3CC(C)CC3(C)C)n2)cc1 (stereo not shown) [Compound 2712] | – |
| < 3000 | CC1CN(c2nc(C(C)(C)C)ccc2C(=O)NS(=O)(=O)c2cccc(OCc3ccc4c(c3)OCO4)n2)C(C)(C)C1 (stereo not shown) [Compound 2714] | – |
| < 3000 | C/C=C/COc1cccc(S(=O)(=O)NC(=O)c2ccc(C(C)(C)C)nc2N2CC(C)CC2(C)C)n1 (stereo not shown) [Compound 2715] | – |
| < 3000 | CC1CN(c2ncccc2C(=O)NS(=O)(=O)c2cccc(Oc3cccc(C(F)(F)F)c3)n2)C(C)(C)C1 (stereo not shown) [Compound 2718] | – |
| < 3000 | CC1CN(c2ncccc2C(=O)NS(=O)(=O)c2cccc(Oc3cccc(Cl)c3Cl)n2)C(C)(C)C1 (stereo not shown) [Compound 2720] | – |
| < 3000 | COc1ccc(OC)c(CNc2cccc(S(=O)(=O)NC(=O)c3cccnc3N3CC(C)CC3(C)C)n2)c1 (stereo not shown) [Compound 2722] | – |
| < 3000 | CCCN(CC1CC1)c1cccc(S(=O)(=O)NC(=O)c2cccnc2N2CC(C)CC2(C)C)n1 (stereo not shown) [Compound 2723] | – |
| < 3000 | CCN(CC)c1cccc(S(=O)(=O)NC(=O)c2cccnc2N2CC(C)CC2(C)C)n1 (stereo not shown) [Compound 2726] | – |
| < 3000 | COC(=O)c1ccc(Oc2cccc(S(=O)(=O)NC(=O)c3cccnc3N3CC(C)CC3(C)C)n2)cc1 (stereo not shown) [Compound 2728] | – |
| 3000 to 10000 | COC1CCN(c2cccc(S(=O)(=O)NC(=O)c3cccnc3N3CC(C)CC3(C)C)n2)CC1 (stereo not shown) [Compound 2732] | – |
| 3000 to 10000 | CC1CN(c2ncccc2C(=O)NS(=O)(=O)c2cccc(Oc3ccc4c(c3)CCC4=O)n2)C(C)(C)C1 (stereo not shown) [Compound 2733] | – |
| 3000 to 10000 | COCCCN(C)c1cccc(S(=O)(=O)NC(=O)c2cccnc2N2CC(C)CC2(C)C)n1 (stereo not shown) [Compound 2734] | – |
| 3000 to 10000 | CC1CN(c2ncccc2C(=O)NS(=O)(=O)c2cccc(Oc3ccc(Cl)cn3)n2)C(C)(C)C1 (stereo not shown) [Compound 2736] | – |
| < 3000 | CC1CN(c2ncccc2C(=O)NS(=O)(=O)c2cccc(Oc3ccccc3N3CCCCC3)n2)C(C)(C)C1 (stereo not shown) [Compound 2738] | – |

The next lines start with the molecule.

| Compound | EC30 [1] [nM] | further results |
| --- | --- | --- |
| CC(C)COc1cc(F)cc(-c2nc(N3C[C@@H](C)CC3(C)C)cnc2C(=O)NS(=O)(=O)c2cccc(N)n2)c1 [Compound 2673, N-[(6-amino-2-pyridyl)sulfonyl]-3-(3-fluoro-5-isobutoxy-phenyl)-5-[(4S)-2,2,4-trimethylpyrrolidin-1-yl]pyrazine-2-carboxamide] | < 3000 | – |
| C[C@@H]1CN(c2nc(-n3ccc(-c4ccccc4)n3)ccc2C(=O)NS(=O)(=O)C2CC2)C(C)(C)C1 [Compound 2674, N-cyclopropylsulfonyl-6-(3-phenylpyrazol-1-yl)-2-[(4S)-2,2,4-trimethylpyrrolidin-1-yl]pyridine-3-carboxamide] | < 3000 | – |
| C[C@@H]1CC[C@H](C)N1c1nc(-n2ccc(-c3ccccc3)n2)ccc1C(=O)NS(=O)(=O)C1CC1 [Compound 2676, N-cyclopropylsulfonyl-2-[(2S,5R)-2,5-dimethylpyrrolidin-1-yl]-6-(3-phenylpyrazol-1-yl)pyridine-3-carboxamide] | < 3000 | – |
| CC(C)COc1cc(F)cc(-c2ccc(C(=O)NS(=O)(=O)N[C@@H]3CCCNC3)c(N3C[C@@H](C)CC3(C)C)n2)c1 [Compound 2677, 6-(3-fluoro-5-isobutoxy-phenyl)-N-[[(3R)-3-piperidyl]sulfamoyl]-2-[(4S)-2,2,4-trimethylpyrrolidin-1-yl]pyridine-3-carboxamide] | < 3000 | – |
| CCOCCOc1ccc(C(=O)NS(=O)(=O)c2cccc(N)n2)c(N2C[C@@H](C)CC2(C)C)n1 [Compound 2678, N-[(6-amino-2-pyridyl)sulfonyl]-6-(2-ethoxyethoxy)-2-[(4S)-2,2,4-trimethylpyrrolidin-1-yl]pyridine-3-carboxamide] | 3000 to 10000 | – |
| CC(C)COc1cc(F)cc(-c2cc(N3C[C@@H](C)CC3(C)C)c(C(=O)NS(=O)(=O)c3cccc(N)n3)cn2)c1 [Compound 2679, N-[(6-amino-2-pyridyl)sulfonyl]-6-(3-fluoro-5-isobutoxy-phenyl)-4-[(4S)-2,2,4-trimethylpyrrolidin-1-yl]pyridine-3-carboxamide] | 3000 to 10000 | – |
| C[C@@H]1CN(c2ncccc2C(=O)NS(=O)(=O)N2CC[C@@H](NCc3ccc(F)c(OC(F)(F)F)c3)C2)C(C)(C)C1 [Compound 2680] | 3000 to 10000 | – |
| CCOCCN(C)c1ncc(-c2ccc(C(=O)NS(=O)(=O)c3cccc(N)n3)c(N3C[C@@H](C)CC3(C)C)n2)cc1C [Compound 2682] | < 3000 | – |
| CCOCCNc1ncc(-c2ccc(C(=O)NS(=O)(=O)c3cccc(N)n3)c(N3C[C@@H](C)CC3(C)C)n2)cc1C [Compound 2683] | < 3000 | – |
| Cc1cc(-c2ccc(C(=O)NS(=O)(=O)c3cccc(N)n3)c(N3C[C@@H](C)CC3(C)C)n2)cnc1NC(C)C [Compound 2685] | < 3000 | – |
| C[C@@H]1CN(c2ncccc2C(=O)NS(=O)(=O)N2CC[C@@H](NCc3ccc(OC(C)(C)C)cc3)C2)C(C)(C)C1 [Compound 2693] | 3000 to 10000 | – |
| C[C@@H]1CN(c2nc(-n3ccc(C4CC4)n3)ccc2C(=O)NS(=O)(=O)c2cccnc2N)C(C)(C)C1 [Compound 2695] | < 3000 | – |
| CCOCCOc1ccc(C(=O)NS(=O)(=O)c2cccnc2N)c(N2C[C@@H](C)CC2(C)C)n1 [Compound 2699] | < 3000 | – |
| C[C@@H]1CN(c2nc(C3=CC4CCC3C4)ccc2C(=O)NS(=O)(=O)c2cccc(N)n2)C(C)(C)C1 (stereo partly shown) [Compound 2703] | – | EC30: < 3000 nM |
| CC[C@@H](C)Oc1ccn(-c2ccc(C(=O)NS(=O)(=O)c3cccnc3N)c(N3C[C@@H](C)CC3(C)C)n2)n1 [Compound 2704] | < 3000 | – |
| CC[C@@H](C)Oc1ccn(-c2ccc(C(=O)NS(=O)(=O)c3cccnc3N)c(N3C[C@@H](C)CC3(C)C)n2)n1 [Compound 2705] | – | EC30 [2]: +++ (“+++” means <3 uM) |
| [2H]C([2H])([2H])C([2H])(COc1cc(F)cc(-c2ccc(C(=O)NS(=O)(=O)c3cccc(N)n3)c(N3C[C@@H](C)CC3(C)C)n2)c1)C([2H])([2H])[2H] [Compound 2708, N-[(6-amino-2-pyridyl)sulfonyl]-6-[3-fluoro-5-[2,3,3,3-tetradeuterio-2-(trideuteriomethyl)propoxy]phenyl]-2-[(4S)-2,2,4-trimethylpyrrolidin-1-yl]pyridine-3-carboxamide] | – | EC30 [2]: +++ (“+++” means <3 uM) |
| C[C@@H]1CN(c2nc(-n3ccc(-c4ccccn4)n3)ccc2C(=O)NS(=O)(=O)C2CC2)C(C)(C)C1 [Compound 2711] | 3000 to 10000 | – |
| COc1ccc(COc2cccc(S(=O)(=O)NC(=O)c3ccc(C(C)(C)C)nc3N3CC(C)CC3(C)C)n2)cc1 (stereo not shown) [Compound 2713] | < 3000 | – |
| CC(C)CCOc1cccc(S(=O)(=O)NC(=O)c2ccc(C(C)(C)C)nc2N2CC(C)CC2(C)C)n1 (stereo not shown) [Compound 2716] | < 3000 | – |
| CC1CN(c2ncccc2C(=O)NS(=O)(=O)c2cccc(OCc3c(F)cccc3Cl)n2)C(C)(C)C1 (stereo not shown) [Compound 2717] | < 3000 | – |
| CC1CN(c2ncccc2C(=O)NS(=O)(=O)c2cccc(Oc3cc(F)cc(Cl)c3)n2)C(C)(C)C1 (stereo not shown) [Compound 2719] | < 3000 | – |
| CC1CN(c2ncccc2C(=O)NS(=O)(=O)c2cccc(OCCc3ccccc3)n2)C(C)(C)C1 (stereo not shown) [Compound 2721] | < 3000 | – |
| CC1CN(c2ncccc2C(=O)NS(=O)(=O)c2cccc(Oc3cccc(C#N)c3)n2)C(C)(C)C1 (stereo not shown) [Compound 2725] | < 3000 | – |
| CC1CN(c2ncccc2C(=O)NS(=O)(=O)c2cccc(Oc3ccc4nonc4c3)n2)C(C)(C)C1 (stereo not shown) [Compound 2727] | < 3000 | – |
| Cc1nc2cc(Oc3cccc(S(=O)(=O)NC(=O)c4cccnc4N4CC(C)CC4(C)C)n3)ccc2s1 (stereo not shown) [Compound 2729] | < 3000 | – |
| CC(=O)c1ccc(Oc2cccc(S(=O)(=O)NC(=O)c3cccnc3N3CC(C)CC3(C)C)n2)cc1 (stereo not shown) [Compound 2730] | 3000 to 10000 | – |
| Cc1cccc(Oc2cccc(S(=O)(=O)NC(=O)c3cccnc3N3CC(C)CC3(C)C)n2)n1 (stereo not shown) [Compound 2731] | 3000 to 10000 | – |
| CC1CN(c2ncccc2C(=O)NS(=O)(=O)c2cccc(NCCc3ccncc3)n2)C(C)(C)C1 (stereo not shown) [Compound 2735] | 3000 to 10000 | – |
| CC1CN(c2ncccc2C(=O)NS(=O)(=O)c2cccc(OC3CCOc4ccccc43)n2)C(C)(C)C1 (stereo not shown) [Compound 2737] | < 3000 | – |
